In this test the target is EED-EZH2 (Homo sapiens (Human), UniProt O75530). The experiment in a line: EED-EZH2 AlphaScreen assay. In kind it is binding. The note with it: 8.7 nM EZH2, 5.0 nM EED, read-out: IC50 Potency Code. As to the method: Biological activity of exemplary substituted pyrrolidones and piperidones was determined by the EED-EZH2 AlphaScreen assay according the following methodology.
EZH2 (non-complexed), His-GST-tags
Anti-FLAG AlphaLISA Acceptor Beads
AlphaScreen GSH Donor Beads
Assay Protocol (Calculated for 384 Wells or 1 Plate)
• 1. Thaw EED and EZH2 proteins on ice. • 2. Prepare 1× HMT Buffer 2: • 1.5 mL of 4× HMT Buffer 2+4.5 mL ddH2O. • 3. Prepare 1.2× EED-EZH2 solution in 1× HMT Buffer 2: 3.4 mL total • 2.1 uL of EED (0.41 mg/mL, 8.04 uM, 1:1608 dilution)+14 uL of EZH2 (0.24 mg/mL, 2.11 uM, 1:243 dilution)+3.384 mL of 1× HMT Buffer 2 • 4. Prepare 1.2× EZH2 solution in 1× HMT Buffer 2 (positive control): 0.168 mL total • 0.69 uL of EZH2 (0.24 mg/mL, 2.11 uM, 1:243 dilution)+167 uL of 1× HMT Buffer 2 • 5. Add 10 μL of 1.2× EED-EZH2 or 1.2× EZH2 solution to each well. • 6. Add compounds in DMSO via Echo transfer and 30 nL DMSO for control wells. • 7. Centrifuge at 15,000 rpm for 10 seconds and allow to incubate at rt for 1 hour. Step Two • 1. Prepare 6× Anti-FLAG and GSH Donor beads in 1× HMT Buffer 2 in the dark: 1 mL total • 10 uL of Anti-FLAG (1:100 dilution)+5 uL of GSH Donor (1:200 dilution)+985 uL of 1× HMT Buffer 2 • 2. Add 2 μL of bead solution to each well. • 3. Centrifuge at 15,000 rpm for 10 seconds and allow to incubate at rt for 1 hour in the dark. • 4. Read plate. Final Concentrations: • 12 μL volume per well • 8.7 nM EZH2 • 5.0 nM EED • DMSO<0.5% Calculations: • 1. Average EZH2 only wells (positive control) and subtract from all other wells. • 2. Average EED-EZH2 only wells (negative control) to indicate 100% signal or 0% inhibition. • 3. Normalize each well to the average 100% signal from step 2. • 4. Report either as normalized % inhibition or normalized % signal. • Use GraphPad to Calculate IC50.
In general terms: In Alpha technology, singlet oxygen from a donor bead excites a nearby acceptor bead.

Each structure is given as a SMILES string.

Sequence of EED-EZH2 (O75530 2-441): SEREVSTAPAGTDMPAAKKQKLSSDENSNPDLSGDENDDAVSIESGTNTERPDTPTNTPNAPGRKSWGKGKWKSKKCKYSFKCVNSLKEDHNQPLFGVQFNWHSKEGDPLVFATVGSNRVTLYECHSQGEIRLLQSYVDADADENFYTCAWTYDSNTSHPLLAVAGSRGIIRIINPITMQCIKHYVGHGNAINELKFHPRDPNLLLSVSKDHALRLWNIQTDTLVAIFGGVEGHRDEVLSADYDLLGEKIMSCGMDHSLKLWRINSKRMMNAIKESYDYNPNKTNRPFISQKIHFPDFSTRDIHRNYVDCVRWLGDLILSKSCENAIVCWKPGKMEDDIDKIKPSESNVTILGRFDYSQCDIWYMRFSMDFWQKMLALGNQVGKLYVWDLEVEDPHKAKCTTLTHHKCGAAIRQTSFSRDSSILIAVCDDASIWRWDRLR

A word on the IC50: it is the concentration needed to halve the response being measured. For `O=C(N[C@@H]1CCN(Cc2cccc(C(F)(F)F)c2)C1=O)c1cc(C(F)(F)F)ccc1O` [NUCC-0226245], the 50% inhibitory concentration (IC50) lay within 1 to 10 µM.
With `Nc1ccc(F)cc1C(=O)NC1CC(=O)N(Cc2ccccc2C(F)(F)F)C1` (stereo not drawn) [NUCC-0223634], the 50% inhibitory concentration (IC50) was over 50 µM.
To `O=C1CC(Nc2n[nH]c3ccccc23)CN1Cc1ccccc1C(F)(F)F` (stereo not drawn) [NUCC-0202766] belongs over 50 µM; to `O=C(NC1CC(=O)N(Cc2ccccc2C(F)(F)F)C1)c1cccc(-c2ccccc2)c1` (stereo not drawn) [NUCC-0202667], over 50 µM; to `O=C1CCC(Nc2ncnc3ccc(C(F)(F)F)cc23)CN1Cc1ccccc1C(F)(F)F` (stereo not drawn) [NUCC-0223826], over 50 µM.
On to `Cc1ccc(O)c(C(=O)N(C)C2CC(=O)N(Cc3ccccc3C(F)(F)F)C2)c1` (stereo not drawn) [NUCC-0202747], for which the IC50 is over 50 µM.
On to `Cc1ccc(O)c(C(=O)N[C@H]2CC(=O)N(C3C=Cc4ccccc43)C2)c1` (stereo partly drawn) [NUCC-0202979], for which the IC50 was in the range of 10 to 50 µM.
Turning to `Cn1nccc1C(=O)NC1CC(=O)N(Cc2ccccc2C(F)(F)F)C1` (stereo not drawn) [NUCC-0202764], the 50% inhibitory concentration (IC50) is over 50 µM.
To `CC(=O)N1CCCC(CN2CC(NC(=O)c3cc(C)ccc3O)CC2=O)C1` (stereo not drawn) [NUCC-0202970] belongs 10 to 50 µM; to `O=C(NCC1CC(=O)N(Cc2ccccc2C(F)(F)F)C1)c1cc(C(F)(F)F)ccc1O` (stereo not drawn) [NUCC-0223627], under 1 µM; to `Cc1cccc(C(=O)NC2CC(=O)N(Cc3ccccc3C(F)(F)F)C2)c1O` (stereo not drawn) [NUCC-0202751], over 50 µM.
Next, `Cc1ccc(O)c(C(=O)N[C@H]2CC(=O)N(Cc3ccc(C(F)(F)F)cc3)C2)c1` [NUCC-0202974]: over 50 µM.
On to `O=C(N[C@H]1CCN(Cc2cccc(C(F)(F)F)c2)C1=O)c1cc(C(F)(F)F)ccc1O` [NUCC-0226238], for which the IC50 lay within 1 to 10 µM.
To `Cc1ccc(O)c(S(=O)(=O)NC2CC(=O)N(Cc3ccccc3C(F)(F)F)C2)c1` (stereo not drawn) [NUCC-0202835] belongs over 50 µM; to `O=C(NCC1CCC(=O)N1Cc1cccc(C(F)(F)F)c1)c1cc(C(F)(F)F)ccc1O` (stereo not drawn) [NUCC-0226240], 1 to 10 µM.
Next, `Nc1ccc(Cl)cc1C(=O)NC1CC(=O)N(Cc2ccccc2C(F)(F)F)C1` (stereo not drawn) [NUCC-0223635]: over 50 µM; `O=C(NC1CC(=O)N(Cc2ccccc2C(F)(F)F)C1)c1ccc(Br)c(O)c1` (stereo not drawn) [NUCC-0202765]: over 50 µM.
To `O=C(NC1CCN(Cc2ccccc2C(F)(F)F)C1=O)c1cccc(C(F)(F)F)c1O` (stereo not drawn) [NUCC-0223823] belongs over 50 µM.
As to `O=C(NC1CC(=O)N(Cc2ccccc2C(F)(F)F)C1)c1cc(I)ccc1O` (stereo not drawn) [NUCC-0202852], the IC50 lay within 10 to 50 µM.
Turning to `O=C(NC1CC(=O)N(Cc2ccccc2C(F)(F)F)C1)c1ccc2cc[nH]c2c1` (stereo not drawn) [NUCC-0202671], the IC50 was over 50 µM.
In the case of `O=C(NC1CCC(=O)N(Cc2ccccc2C(F)(F)F)C1)c1ccc(C(F)(F)F)cc1O` (stereo not drawn) [NUCC-0223820], the half-inhibitory concentration (IC50) is over 50 µM.
Next, `O=C(NC1CC(=O)N(Cc2ccccc2C(F)(F)F)C1)c1ccccc1F` (stereo not drawn) [NUCC-0202763]: over 50 µM; `CCc1ccc(O)c(C(=O)NC2CC(=O)N(Cc3ccccc3C(F)(F)F)C2)c1` (stereo not drawn) [NUCC-0202753]: over 50 µM; `Cc1c[nH]c(=O)c(C(=O)NC2CC(=O)N(Cc3ccccc3C(F)(F)F)C2)c1` (stereo not drawn) [NUCC-0202828]: over 50 µM.
On to `CC1(C)C(=O)N(Cc2cccc(C(F)(F)F)c2)CC1NC(=O)c1cc(C(F)(F)F)ccc1O` (stereo not drawn) [NUCC-0226236], for which the concentration for half-maximal inhibition (IC50) is under 1 µM.
`O=C(NC1CC(=O)N(Cc2ccccc2C(F)(F)F)C1)c1cc(C(F)(F)F)ccc1O` (stereo not drawn) [NUCC-0202965]: the IC50 lay within 1 to 10 µM.
To `COc1ccc(C)cc1C(=O)NC1CC(=O)N(Cc2ccccc2C(F)(F)F)C1` (stereo not drawn) [NUCC-0202660] belongs 10 to 50 µM.
`O=C(NC1CC(=O)N(Cc2ccccc2C(F)(F)F)C1)c1cnon1` (stereo not drawn) [NUCC-0202755]: the IC50 is over 50 µM.
Next, `O=C(NC1CC(=O)N(Cc2ccccc2C(F)(F)F)C1)c1ccc(Cl)nc1Cl` (stereo not drawn) [NUCC-0202762]: over 50 µM; `COc1ccc(CN2C[C@@H](NC(=O)c3cc(C)ccc3O)CC2=O)c(OC)c1` [NUCC-0202972]: 10 to 50 µM; `O=C(NC[C@H]1CC(=O)N(Cc2cccc(F)c2)C1)c1cc(C(F)(F)F)ccc1O` [NUCC-0226243]: under 1 µM.
For the compound `Cc1ccc(O)c(C(=O)N[C@@H]2CC(=O)N(Cc3ccc(Cl)c(Cl)c3)C2)c1` [NUCC-0202977], the IC50 was in the range of 10 to 50 µM.
As to `O=C(NC[C@@H]1CCC(=O)N1Cc1cccc(C(F)(F)F)c1)c1cc(C(F)(F)F)ccc1O` [NUCC-0226241], the IC50 lay in the range of 1 to 10 µM.
`O=C(NC1CCC(=O)N(Cc2ccccc2C(F)(F)F)C1)c1cc(Cl)ccc1O` (stereo not drawn) [NUCC-0223819]: the half-inhibitory concentration (IC50) was in the range of 1 to 10 µM.
`O=C1CC(Nc2ncnc3ccc(C(F)(F)F)cc23)CN1Cc1ccccc1C(F)(F)F` (stereo not drawn) [NUCC-0223632]: the concentration for half-maximal inhibition (IC50) is over 50 µM.
Regarding `O=C(N[C@H]1CC(=O)N(Cc2ccccc2C(F)(F)F)C1)c1cc(C(F)(F)F)ccc1O` [NUCC-0223624], the 50% inhibitory concentration (IC50) was under 1 µM.
Turning to `Cc1cccc(C(=O)NC2CC(=O)N(Cc3ccccc3C(F)(F)F)C2)c1` (stereo not drawn) [NUCC-0202668], the IC50 was over 50 µM.
To `O=C(NC1CC(=O)N(Cc2cccc(C(F)(F)F)c2)C1)c1cc(C(F)(F)F)ccc1O` (stereo not drawn) [NUCC-0223625] belongs under 1 µM.
Turning to `Cc1ccc(O)c(C(=O)NC2CC(=O)N(Cc3ccccc3C(F)(F)F)C2)n1` (stereo not drawn) [NUCC-0202968], the IC50 is over 50 µM.
As for `O=C(O)c1ccccc1C(=O)NC1CC(=O)N(Cc2ccc(Cl)c(Cl)c2)C1` (stereo not drawn) [NUCC-0202676], the IC50 was over 50 µM.
Consider `Cc1ccc(C(=O)NC2CC(=O)N(Cc3ccccc3C(F)(F)F)C2)c(O)c1` (stereo not drawn) [NUCC-0202750], for which the IC50 is over 50 µM.
For the compound `O=C(NC1CCN(Cc2ccccc2C(F)(F)F)C1=O)c1cc(C(F)(F)F)ccc1O` (stereo not drawn) [NUCC-0223821], the IC50 is under 1 µM.
Turning to `O=C(O)c1ccccc1C(=O)NC1CC(=O)N(Cc2ccccc2[N+](=O)[O-])C1` (stereo not drawn) [NUCC-0202658], the concentration for half-maximal inhibition (IC50) was over 50 µM.
Turning to `COC(=O)c1ccccc1CN1CC(NC(=O)c2cc(C(F)(F)F)ccc2O)CCC1=O` (stereo not drawn) [NUCC-0226237], the IC50 is 1 to 10 µM.
As to `O=C(NC1CC(=O)N(Cc2ccccc2C(F)(F)F)C1)c1cccc2cc[nH]c12` (stereo not drawn) [NUCC-0202749, N-(5-oxo-1-(2-(trifluoromethyl)benzyl)pyrrolidin-3-yl)-1H-indole-7-carboxamide], the half-maximal inhibitory concentration (IC50) was over 50 µM.
Next, `O=C(NC1CC(=O)N(Cc2ccccc2C(F)(F)F)C1)c1cc(Cl)nc2ccccc12` (stereo not drawn) [NUCC-0202792]: over 50 µM; `COc1cccc(CC(=O)NC2CC(=O)N(Cc3ccccc3C(F)(F)F)C2)c1` (stereo not drawn) [NUCC-0202661]: over 50 µM; `CC1(C)C(=O)N(Cc2ccccc2C(F)(F)F)C[C@H]1NC(=O)c1cc(C(F)(F)F)ccc1O` [NUCC-0223626]: 1 to 10 µM.
Regarding `COc1ccc(O)c(C(=O)NC2CC(=O)N(Cc3ccccc3C(F)(F)F)C2)c1` (stereo not drawn) [NUCC-0202831], the IC50 is 10 to 50 µM.
`O=C(NC1CC(=O)N(Cc2ccccc2C(F)(F)F)C1)c1cc(F)ccc1O` (stereo not drawn) [NUCC-0202832]: the IC50 lay in the range of 1 to 10 µM.
`Nc1ccc(C(F)(F)F)cc1C(=O)NC1CC(=O)N(Cc2ccccc2C(F)(F)F)C1` (stereo not drawn) [NUCC-0223633]: the IC50 was over 50 µM.

(Values after patent publication US11919855B2, “Substituted pyrrolidones and piperidones as small molecule inhibitors of EZH2 and EED protein binding” (Northwestern University, priority 2021, dated 2024).)
